The target in one series is T1, TRPM5 channels (Homo sapiens, UniProt Q9NZQ8).
T1 construct: expressed in transfected cells; host or cells: CHO
T1 sequence (Q9NZQ8 1-1165): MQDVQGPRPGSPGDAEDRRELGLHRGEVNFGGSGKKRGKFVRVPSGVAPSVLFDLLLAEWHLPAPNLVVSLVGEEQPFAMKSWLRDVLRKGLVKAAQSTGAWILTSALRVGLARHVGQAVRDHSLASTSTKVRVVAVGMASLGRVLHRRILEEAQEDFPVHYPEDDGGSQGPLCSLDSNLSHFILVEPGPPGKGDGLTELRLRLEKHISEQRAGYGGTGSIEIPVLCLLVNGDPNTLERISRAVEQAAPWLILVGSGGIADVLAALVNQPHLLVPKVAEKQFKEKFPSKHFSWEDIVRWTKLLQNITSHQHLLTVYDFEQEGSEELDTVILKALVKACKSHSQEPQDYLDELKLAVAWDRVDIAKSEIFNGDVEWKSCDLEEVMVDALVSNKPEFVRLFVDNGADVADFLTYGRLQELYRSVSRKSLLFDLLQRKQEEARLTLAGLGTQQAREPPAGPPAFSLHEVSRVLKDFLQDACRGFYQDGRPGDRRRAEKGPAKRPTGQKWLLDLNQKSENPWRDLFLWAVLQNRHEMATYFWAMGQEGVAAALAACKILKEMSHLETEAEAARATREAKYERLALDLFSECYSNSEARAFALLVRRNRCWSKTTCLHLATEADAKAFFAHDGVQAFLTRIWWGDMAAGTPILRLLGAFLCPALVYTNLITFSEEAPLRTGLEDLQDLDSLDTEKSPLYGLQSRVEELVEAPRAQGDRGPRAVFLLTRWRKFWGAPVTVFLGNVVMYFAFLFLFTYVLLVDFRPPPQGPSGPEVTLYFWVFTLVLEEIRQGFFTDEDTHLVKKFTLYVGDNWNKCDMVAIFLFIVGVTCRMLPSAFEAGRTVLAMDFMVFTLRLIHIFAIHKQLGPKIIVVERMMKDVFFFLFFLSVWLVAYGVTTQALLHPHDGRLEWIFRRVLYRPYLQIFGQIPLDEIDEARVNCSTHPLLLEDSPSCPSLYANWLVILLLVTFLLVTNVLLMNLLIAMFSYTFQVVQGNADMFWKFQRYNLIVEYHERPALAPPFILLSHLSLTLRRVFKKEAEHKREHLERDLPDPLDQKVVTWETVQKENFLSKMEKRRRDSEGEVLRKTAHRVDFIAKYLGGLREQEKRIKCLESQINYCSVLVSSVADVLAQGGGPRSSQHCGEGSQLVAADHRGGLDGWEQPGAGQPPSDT
Kind of series: TRP Family FLIPR Assay, TRPM5. The settings on record: CHO cells. Type of series: cell-based. The method, then:
(§1) The compound of Example 5 was tested for selectivity against a panel of Human TRP family ion channels in a TRP Family FLIPR Assay as described below. • 1. TRPC3 channels (human TRPC3 variant 1 gene, expressed in HEK293 cells). • 2. TRPC4 channels (human TRPC4 gene, expressed in HEK293 cells). • 3. TRPC5 channels (human TRPC5 gene, expressed in HEK293 cells). • 4. TRPC6 channels (human TRPC6 gene, expressed in HEK293 cells). • 5. TRPM2 channels (human TRPM2 gene, transiently expressed in HEK293 cells). • 6. TRPM3 channels (human TRPM3 gene, transiently expressed in HEK293 cells). • 7. TRPM4 channels (human TRPM4 gene, expressed in CHO cells). • 8. […]
(§2) Data acquisition was performed via the FLIPR Control software supplied with the FLIPR System (MDS-AT) and data was analyzed using Microsoft Excel (Microsoft Corp., Redmond, WA) or GraphPad Prism. […]
(§3) [formula] where Base is the response at low concentrations of test article, Max is the maximum response at high concentrations, xhalf the EC50, or IC50, the concentration of test article producing either half-maximal activation or inhibition, and rate is the Hill coefficient. […] No assumptions about the fit parameters was made; the fit parameters were determined by the algorithm.
(§4) The effect of each test article was evaluated at eight (8) concentrations: 0.003, 0.01, 0.03, 0.1, 0.3, 1, 3 and 10 μM, n≤4 wells/concentration). […]

The target in the next series is T2, TRPV5 channels (Homo sapiens, UniProt Q9NQA5).
T2 construct: expressed in transfected cells; host or cells: HEK293 (transient)
The series is described as follows: TRP Family FLIPR Assay, TRPV5. Type of series: cell-based. As to conditions: antagonist mode; activated with 60 μM cadmium ion; HEK293 cells (transient); 0.003-10 μM; read-out: IC50 hTRPV5. The method, then:
as §1, §2, §3, §4

A further series relates to Hepatocytes. Kind of series: Hepatocytes predicted clearance, cyno.

T2 sequence (Q9NQA5 whole entry): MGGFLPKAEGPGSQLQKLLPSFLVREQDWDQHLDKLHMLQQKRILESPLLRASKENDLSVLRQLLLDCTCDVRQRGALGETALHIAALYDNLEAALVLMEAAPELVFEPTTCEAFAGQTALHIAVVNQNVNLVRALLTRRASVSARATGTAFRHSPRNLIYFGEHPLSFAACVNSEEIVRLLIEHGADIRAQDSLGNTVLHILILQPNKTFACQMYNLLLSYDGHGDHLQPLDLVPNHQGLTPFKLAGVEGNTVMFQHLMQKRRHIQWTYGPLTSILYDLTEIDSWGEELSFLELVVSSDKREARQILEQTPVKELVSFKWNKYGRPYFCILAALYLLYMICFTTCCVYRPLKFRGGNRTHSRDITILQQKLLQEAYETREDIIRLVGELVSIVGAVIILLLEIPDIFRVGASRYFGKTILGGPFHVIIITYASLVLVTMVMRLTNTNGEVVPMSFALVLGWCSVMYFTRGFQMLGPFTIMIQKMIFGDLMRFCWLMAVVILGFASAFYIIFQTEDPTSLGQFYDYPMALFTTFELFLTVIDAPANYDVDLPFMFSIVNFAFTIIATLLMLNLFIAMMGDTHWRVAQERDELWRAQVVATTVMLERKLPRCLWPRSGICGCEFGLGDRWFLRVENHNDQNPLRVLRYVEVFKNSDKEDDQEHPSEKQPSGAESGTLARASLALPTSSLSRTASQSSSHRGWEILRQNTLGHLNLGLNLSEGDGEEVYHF

Take `CC(C)(O)c1cnc(N2C[C@@]3(CC[C@@H](F)[C@](C)(Cn4cnc5ccc(C#N)cc54)C3)OC2=O)cn1` (single isomer, unassigned) [Example 5]: at TRPM5 channels (agonist mode, vs EMAX of Mg-ATP 33.3 μM, read-out: EC50 hTRPM5), the EC50 was greater than 10 µM. For the same compound, the IC50 at TRPM5 channels (antagonist mode, activated with Mg-ATP 75 μM, 0.003-10 μM, read-out: IC50 hTRPM5) was greater than 10 µM; at TRPV5 channels it was greater than 10 µM. The “Hepatocytes predicted clearance in cyno” value with Hepatocytes is 1 mL/min/kg.

The values above are taken from US12391683B2, “Therapeutic compounds and methods” (Actio Biosciences, Inc., priority 2022, dated 2025).
